This passage reports IC50 results from patent publication US8710089B2, “Triazole derivatives as ghrelin analogue ligands of growth hormone secretagogue receptors” (Zentaris GmbH, priority 2005, dated 2014).

Molecules are shown by their SMILES.

The target in the experiment is T1, human GHS-R 1a (Homo sapiens, UniProt Q92847).
T1 construct: expressed in transfected cells; host or cells: LLC PK-1 porcine renal epithelial cells (ECACC No. 86121112), isolated plasma membranes
T1 sequence (Q92847 whole entry): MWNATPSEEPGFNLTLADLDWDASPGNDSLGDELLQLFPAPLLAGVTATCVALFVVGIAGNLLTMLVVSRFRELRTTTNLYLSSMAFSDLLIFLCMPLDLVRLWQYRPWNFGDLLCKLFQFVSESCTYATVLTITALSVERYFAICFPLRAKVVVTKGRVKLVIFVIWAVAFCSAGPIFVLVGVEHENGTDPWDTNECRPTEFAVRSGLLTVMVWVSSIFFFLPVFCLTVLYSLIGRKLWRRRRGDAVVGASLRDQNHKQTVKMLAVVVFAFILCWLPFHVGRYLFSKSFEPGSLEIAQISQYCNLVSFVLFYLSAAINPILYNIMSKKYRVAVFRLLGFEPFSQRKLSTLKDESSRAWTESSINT
Kind of experiment: GHS-R 1a receptor-ligand binding assay (membrane preparations from transfected LLC PK-1 cells). The following applies: displacement of 125I-His9-ghrelin (60 pM); membranes of LLC PK-1 cells transfected with human GHS-R 1a; mean of at least two independent experiments in triplicates. The method, then: (J. Med. […] Med. Chem. 2003, 46: 1191-1203), were incubated in homogenization buffer HB [50 mM Tris (pH 7.3), 5 mM MgCl2, 2.5 mM EDTA, and 30 μg/mL bacitracin (Sigma)] for 60 min at 25° C. (steady-state conditions) with 60 pM ^125I-[…]-ghrelin (Amersham) in the presence or absence of competing compounds (compounds of the invention). […] Nonspecific binding was defined using an excess (10^-6 M) of ghrelin. The binding reaction was stopped by addition of 4 mL of ice-cold HB followed by rapid filtration over Whatman GP/C filters presoaked with 0.5% polyethyleneimine to prevent excessive binding of radioligand to the filters. […] IC50 values given are the mean of at least two independent experiments performed in triplicates.
In general terms: Loss of bound radioactivity is the signal in a displacement assay; it reports binding, not function.
For orientation: IC50 means the concentration at which inhibition is half-maximal. Higher therefore signals a need for much substance. As to `COc1ccc(Cn2c(CCc3ccccc3)nnc2[C@@H](Cc2c[nH]c3ccccc23)NC(=O)c2ccncc2)c(OC)c1` [compound 65, (R)—N-(1-(4-(2,4-dimethoxybenzyl)-5-phenethyl-4H-1,2,4-triazol-3-yl)-2-(1H-indol-3-yl)ethyl)isonicotinamide], the IC50 was 58 nM.
In turn, `COc1ccc(Cn2c(CCc3ccccc3)nnc2[C@@H](Cc2c[nH]c3ccccc23)NC(=O)c2ccc(N=[N+]=[N-])cc2)c(OC)c1` [compound 188, N—((R)-1-(4-(2,4-dimethoxybenzyl)-5-phenethyl-4H-1,2,4-triazol-3-yl)-2-(1H-indol-3-yl)ethyl)-4-azidobenzamide] had an IC50 of 87 nM.
As for `CC(C)(C)Sc1nnc([C@@H](Cc2c[nH]c3ccccc23)NC(=O)C(C)(C)N)n1Cc1ccco1` [Example 39 from WO 00/54729 A2, (R)—N-(1-(5-(tert-butylthio)-4-(furan-2-ylmethyl)-4H-1,2,4-triazol-3-yl)-2-(1H-indol-3-yl)ethyl)-2-amino-2-methylpropanamide, reference compound], the IC50 was around 5000 nM.
Under `COc1ccc(Cn2c(CCc3c[nH]c4ccccc34)nnc2[C@@H](Cc2c[nH]c3ccccc23)NC(=O)[C@@H]2C=CCN2)cc1` [compound 190, (2S)—N—((R)-1-(5-(2-(1H-indol-3-yl)ethyl)-4-(4-methoxybenzyl)-4H-1,2,4-triazol-3-yl)-2-(1H-indol-3-yl)ethyl)-2,5-dihydro-1H-pyrrole-2-carboxamide] stands 12 nM; under `COc1ccc(Cn2c(CCc3ccccc3)nnc2[C@@H](Cc2c[nH]c3ccccc23)NCCN)c(OC)c1` [compound 180, N-1-((R)-1-(4-(2,4-dimethoxybenzyl)-5-phenethyl-4H-1,2,4-triazol-3-yl)-2-(1H-indol-3-yl)ethyl)ethane-1,2-diamine], 189 nM.
Regarding `COc1ccc(Cn2c(CCc3ccccc3)nnc2[C@@H](Cc2c[nH]c3ccccc23)NC(=O)Cc2cccnc2)cc1` [compound 58, (R)—N-(1-(4-(4-methoxybenzyl)-5-phenethyl-4H-1,2,4-triazol-3-yl)-2-(1H-indol-3-yl)ethyl)-2-(pyridin-3-yl)acetamide], the IC50 is 29 nM.
For the compound `COc1ccc(Cn2c(CCc3c[nH]c4ccccc34)nnc2[C@H](Cc2c[nH]c3ccccc23)NC(=O)C(C)(C)N)c(OC)c1` [compound 18, (S)—N-(1-(5-(2-(1H-indol-3-yl)ethyl)-4-(2,4-dimethoxybenzyl)-4H-1,2,4-triazol-3-yl)-2-(1H-indol-3-yl)ethyl)-2-amino-2-methylpropanamide], the 50% inhibitory concentration (IC50) was found to be 83 nM.
In turn, `COc1ccc(Cn2c(CCc3c[nH]c4ccccc34)nnc2[C@@H](Cc2c[nH]c3ccccc23)NC(=O)[C@H]2CCCNC2)cc1` [compound 87, (S)—N—((R)-1-(5-(2-(1H-indol-3-yl)ethyl)-4-(4-methoxybenzyl)-4H-1,2,4-triazol-3-yl)-2-(1H-indol-3-yl)ethyl)piperidine-3-carboxamide] returned an IC50 of 10 nM.
Under `COc1ccc(-n2c(CCc3ccccc3)nnc2[C@@H](Cc2c[nH]c3ccccc23)NC(=O)c2ccccn2)c(OC)c1` [compound 159, N—((R)-2-(1H-indol-3-yl)-1-(4-(2,4-dimethoxyphenyl)-5-phenethyl-4H-1,2,4-triazol-3-yl)ethyl)picolinamide] stands 33 nM; under `O=C(Cc1ccccn1)N[C@H](Cc1c[nH]c2ccccc12)c1nnc(CCc2c[nH]c3ccccc23)n1Cc1ccccc1` [compound 60, (R)—N-(1-(5-(2-(1H-indol-3-yl)ethyl)-4-benzyl-4H-1,2,4-triazol-3-yl)-2-(1H-indol-3-yl)ethyl)-2-(pyridin-2-yl)acetamide], 61 nM.
The compound `COc1ccc(Cn2c(CCc3ccccc3)nnc2[C@@H](Cc2c[nH]c3ccccc23)NC(=O)[C@@H]2CCCN2)c(OC)c1` [compound 68, (S)—N—((R)-1-(4-(2,4-dimethoxybenzyl)-5-phenethyl-4H-1,2,4-triazol-3-yl)-2-(1H-indol-3-yl)ethyl)pyrrolidine-2-carboxamide] returned an IC50 of 44 nM.
For `COc1ccc(Cn2c(CCc3c[nH]c4ccccc34)nnc2[C@@H](Cc2c[nH]c3ccccc23)NC(=O)[C@@H]2CCCN2)cc1` [compound 89, (S)—N—((R)-1-(5-(2-(1H-indol-3-yl)ethyl)-4-(4-methoxybenzyl)-4H-1,2,4-triazol-3-yl)-2-(1H-indol-3-yl)ethyl)pyrrolidine-2-carboxamide], the IC50 stood at 9 nM.
Under `COc1ccc(Cn2c(CCc3ccccc3)nnc2[C@@H](Cc2c[nH]c3ccccc23)NC(=O)c2ccccc2)cc1` [compound 176, N—((R)-1-(4-(4-methoxybenzyl)-5-phenethyl-4H-1,2,4-triazol-3-yl)-2-(1H-indol-3-yl)ethyl)benzamide] stands 80 nM.
The figure for `COc1ccc(Cn2c(CCc3ccccc3)nnc2[C@@H](Cc2c[nH]c3ccccc23)NC(=O)[C@@H](N)Cc2ccccc2)cc1` [compound 186, (2S)—N—((R)-1-(4-(4-methoxybenzyl)-5-phenethyl-4H-1,2,4-triazol-3-yl)-2-(1H-indol-3-yl)ethyl)-2-amino-3-phenylpropanamide] is 175 nM; for `COc1ccc(Cn2c(CCCc3c[nH]c4ccccc34)nnc2[C@@H](Cc2c[nH]c3ccccc23)NC(=O)C(C)(C)N)cc1` [compound 23, (R)—N-(1-(5-(3-(1H-indol-3-yl)propyl)-4-(4-methoxybenzyl)-4H-1,2,4-triazol-3-yl)-2-(1H-indol-3-yl)ethyl)-2-amino-2-methylpropanamide] it is 37 nM.
`CC(C)(N)C(=O)N[C@H](COCc1ccccc1)c1nnnn1Cc1ccccc1` [Example from page 175, WO 00/54729 A2, (S)—N-(1-(1-benzyl-tetrazol-5-yl)-2-(benzyloxy)ethyl)-2-amino-2-methylpropanamide, reference compound] came in with an IC50 of around 25000 nM.
Compound `O=C(N[C@H](Cc1c[nH]c2ccccc12)c1nnc(Cc2ccccc2)n1Cc1ccccn1)c1ccccn1` [compound 164, N—((R)-1-(5-benzyl-4-((pyridin-2-yl)methyl)-4H-1,2,4-triazol-3-yl)-2-(1H-indol-3-yl)ethyl)picolinamide] came in with a 50% inhibitory concentration (IC50) of 207 nM.
In turn, `CCc1ccc(Cn2c(CCc3ccccc3)nnc2[C@@H](Cc2c[nH]c3ccccc23)NC(=O)c2ccccn2)cc1` [compound 138, N—((R)-1-(4-(4-ethylbenzyl)-5-phenethyl-4H-1,2,4-triazol-3-yl)-2-(1H-indol-3-yl)ethyl)picolinamide] yielded an IC50 of 44 nM.
Compound `CCc1ccc(Cn2c(CCc3ccccc3)nnc2[C@@H](Cc2c[nH]c3ccccc23)NC(=O)c2cnccn2)cc1` [compound 85, (R)—N-(1-(4-(4-ethylbenzyl)-5-phenethyl-4H-1,2,4-triazol-3-yl)-2-(1H-indol-3-yl)ethyl)pyrazine-2-carboxamide] had an IC50 of 89 nM.
On to `CCc1ccc(Cn2c(CCc3ccccc3)nnc2[C@@H](Cc2c[nH]c3ccccc23)NC(=O)C2CCNCC2)cc1` [compound 83, (R)—N-(1-(4-(4-ethylbenzyl)-5-phenethyl-4H-1,2,4-triazol-3-yl)-2-(1H-indol-3-yl)ethyl)piperidine-4-carboxamide], for which the 50% inhibitory concentration (IC50) was found to be 19 nM.
Under `COc1cccc(Cn2c(CCc3ccccc3)nnc2[C@@H](Cc2c[nH]c3ccccc23)NC(=O)C(C)(C)N)c1` [compound 19, (R)—N-(1-(4-(3-methoxybenzyl)-5-phenethyl-4H-1,2,4-triazol-3-yl)-2-(1H-indol-3-yl)ethyl)-2-amino-2-methylpropanamide] stands 78 nM.
